{
  "source": "patent US12194036B2",
  "about": "(priority 2022, dated 2025)",
  "key": {"[1]": {"test": "Pharmacokinetics after administration of the subject combination", "settings": "for AUC0-12 relative to that of bupropion / Cmax relative to peak level of bupropion: metabolite vs bupropion, after the subject combination"}, "[2]": {"test": "Effect of CYP2D6 poor metabolizer status on pharmacokinetics of the tablet (Group 3)", "settings": "compared to patients who are not CYP2D6 poor metabolizers"}, "[3]": {"test": "Food effect on pharmacokinetics of the subject combination", "settings": "subject combination administered with food"}, "plasma protein": {"tested_on": "plasma protein", "test": "Plasma protein binding", "assay_type": "in vitro ADME", "settings": "metabolite vs bupropion"}},
  "data": [
    {"compound": "CC(NC(C)(C)C)C(=O)c1cccc(Cl)c1", "note": "(racemic) [bupropion]", "values": [
      {"measurement": "mean elimination half-life", "setting": "[1]; human, plasma, oral", "value": 15, "unit": "h"}
    ]},
    {"compound": "COc1ccc2c(c1)[C@]13CCCC[C@@H]1[C@H](C2)N(C)CC3", "note": "[dextromethorphan]", "values": [
      {"measurement": "plasma concentrations in CYP2D6 poor metabolizers", "setting": "[2]", "value": "increases plasma concentrations"},
      {"measurement": "increase of mean elimination half-life", "setting": "[1]; 8 days of subject combination in extensive metabolizers, compared to dextromethorphan given without bupropion", "value": "approximately 3 fold"},
      {"measurement": "pharmacokinetics at steady state (linearity)", "setting": "[1]; co-administered with bupropion", "value": "nonlinear pharmacokinetics"},
      {"measurement": "changes in AUC and Cmax at steady state with dose", "setting": "[1]; varying doses of bupropion (75 to 150 mg), co-administered with bupropion", "value": "less than dose-proportional changes"},
      {"measurement": "changes in AUC and Cmax at steady state with dose", "setting": "[1]; varying doses of dextromethorphan (30 to 60 mg), co-administered with bupropion", "value": "greater than dose-proportional changes"},
      {"measurement": "AUC0-12 decrease with food", "setting": "[3]", "value": 14, "unit": "%"}
    ]},
    {"compound": "CC(NC(C)(C)C)C(O)c1cccc(Cl)c1", "note": "(centres unmarked) [erythrohydroxybupropion]", "values": [
      {"measurement": "AUC0-12 relative to that of bupropion", "setting": "[1]", "value": "about 1.2 times"},
      {"measurement": "Cmax relative to peak level of bupropion", "setting": "[1]", "value": "approximately equal to"}
    ]},
    {"compound": "C[C@H]1NC(C)(C)CO[C@]1(O)c1cccc(Cl)c1", "note": "[hydroxybupropion]", "values": [
      {"measurement": "AUC0-12 relative to that of bupropion", "setting": "[1]", "value": "about 19 times"},
      {"measurement": "Cmax relative to peak level of bupropion", "setting": "[1]", "value": "approximately 14 times"}
    ]},
    {"compound": "C[C@H](NC(C)(C)C)[C@@H](O)c1cccc(Cl)c1", "note": "[threohydroxybupropion]", "values": [
      {"measurement": "AUC0-12 relative to that of bupropion", "setting": "[1]", "value": "about 7 times"},
      {"measurement": "Cmax relative to peak level of bupropion", "setting": "[1]", "value": "about 5 times"},
      {"measurement": "extent of protein binding compared with bupropion", "setting": "plasma protein", "value": "about half that seen with bupropion"}
    ]}
  ]
}
